# Assay results: patent US9296725B2, “Heterocyclyl pyrimidine analogues as TYK2 inhibitors” (Cellzome Limited, priority 2012, dated 2016)
# Experiments:
# TYK2 = target: T1, TYK2 (Homo sapiens, UniProt P29597); assay: Kinobeads assay, TYK2 (competition binding in mixed Molt4/Ramos cell lysate, dot blot detection); settings: Kinobeads assay, Molt4/Ramos lysate; read-out: TYK2 Band (Kinobeads assay potency, IC50)
# T1 construct: endogenous in cells; host or cells: Molt4 (ATCC CRL-1582) and Ramos (ATCC CRL-1596), mixed lysate 1:2
# T1 sequence (P29597 whole entry): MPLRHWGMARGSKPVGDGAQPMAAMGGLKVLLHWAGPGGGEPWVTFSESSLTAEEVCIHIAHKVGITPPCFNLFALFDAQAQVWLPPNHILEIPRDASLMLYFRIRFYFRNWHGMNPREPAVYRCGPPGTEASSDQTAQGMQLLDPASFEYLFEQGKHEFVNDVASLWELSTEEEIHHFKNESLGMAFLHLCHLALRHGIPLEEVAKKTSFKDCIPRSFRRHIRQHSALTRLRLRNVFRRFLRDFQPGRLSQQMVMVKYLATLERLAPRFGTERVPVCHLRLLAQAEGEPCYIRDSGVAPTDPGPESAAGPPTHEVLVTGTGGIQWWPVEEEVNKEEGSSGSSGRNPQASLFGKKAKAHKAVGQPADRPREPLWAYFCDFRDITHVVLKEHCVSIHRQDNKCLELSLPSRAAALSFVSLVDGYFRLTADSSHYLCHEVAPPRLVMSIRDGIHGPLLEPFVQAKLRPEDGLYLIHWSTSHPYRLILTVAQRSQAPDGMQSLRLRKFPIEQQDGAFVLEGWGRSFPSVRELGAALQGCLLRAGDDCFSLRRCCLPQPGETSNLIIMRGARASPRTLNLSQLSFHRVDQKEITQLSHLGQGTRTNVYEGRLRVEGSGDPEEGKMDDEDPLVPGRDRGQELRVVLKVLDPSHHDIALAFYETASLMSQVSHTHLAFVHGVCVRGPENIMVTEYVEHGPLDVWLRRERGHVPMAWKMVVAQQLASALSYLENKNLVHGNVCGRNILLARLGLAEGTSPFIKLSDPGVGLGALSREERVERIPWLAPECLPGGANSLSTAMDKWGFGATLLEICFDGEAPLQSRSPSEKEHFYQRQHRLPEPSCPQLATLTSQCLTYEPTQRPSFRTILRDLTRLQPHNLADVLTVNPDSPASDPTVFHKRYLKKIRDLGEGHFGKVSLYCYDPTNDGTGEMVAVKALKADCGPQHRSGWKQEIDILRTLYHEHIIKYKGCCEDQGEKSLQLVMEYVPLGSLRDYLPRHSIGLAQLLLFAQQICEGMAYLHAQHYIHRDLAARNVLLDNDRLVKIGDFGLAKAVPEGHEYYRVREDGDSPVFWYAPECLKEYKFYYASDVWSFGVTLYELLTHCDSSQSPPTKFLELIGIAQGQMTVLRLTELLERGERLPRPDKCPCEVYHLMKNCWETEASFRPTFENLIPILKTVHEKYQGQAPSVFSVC
# Procedure, shortened: (§1)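 JAK2 and TYK2 retained on Kinobeads (immobilized aminopyrido-pyrimidine ligand) from 1:2 Molt4:Ramos lysate (10 mg/mL) were quantified by antibody dot blot (Odyssey infrared) after 3 h cold incubation with compound. Nine-step 1:3 dilution series; IC50 calculated from curves.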
# JAK2 = target: T2, JAK2 (Homo sapiens, UniProt O60674); assay: Kinobeads assay, JAK2 (competition binding in mixed Molt4/Ramos cell lysate, dot blot detection); settings: read-out: JAK2 Band (Kinobeads assay potency, IC50)
# T2 construct: endogenous in cells; host or cells: Molt4 (ATCC CRL-1582) and Ramos (ATCC CRL-1596), mixed lysate 1:2
# T2 sequence (O60674 whole entry): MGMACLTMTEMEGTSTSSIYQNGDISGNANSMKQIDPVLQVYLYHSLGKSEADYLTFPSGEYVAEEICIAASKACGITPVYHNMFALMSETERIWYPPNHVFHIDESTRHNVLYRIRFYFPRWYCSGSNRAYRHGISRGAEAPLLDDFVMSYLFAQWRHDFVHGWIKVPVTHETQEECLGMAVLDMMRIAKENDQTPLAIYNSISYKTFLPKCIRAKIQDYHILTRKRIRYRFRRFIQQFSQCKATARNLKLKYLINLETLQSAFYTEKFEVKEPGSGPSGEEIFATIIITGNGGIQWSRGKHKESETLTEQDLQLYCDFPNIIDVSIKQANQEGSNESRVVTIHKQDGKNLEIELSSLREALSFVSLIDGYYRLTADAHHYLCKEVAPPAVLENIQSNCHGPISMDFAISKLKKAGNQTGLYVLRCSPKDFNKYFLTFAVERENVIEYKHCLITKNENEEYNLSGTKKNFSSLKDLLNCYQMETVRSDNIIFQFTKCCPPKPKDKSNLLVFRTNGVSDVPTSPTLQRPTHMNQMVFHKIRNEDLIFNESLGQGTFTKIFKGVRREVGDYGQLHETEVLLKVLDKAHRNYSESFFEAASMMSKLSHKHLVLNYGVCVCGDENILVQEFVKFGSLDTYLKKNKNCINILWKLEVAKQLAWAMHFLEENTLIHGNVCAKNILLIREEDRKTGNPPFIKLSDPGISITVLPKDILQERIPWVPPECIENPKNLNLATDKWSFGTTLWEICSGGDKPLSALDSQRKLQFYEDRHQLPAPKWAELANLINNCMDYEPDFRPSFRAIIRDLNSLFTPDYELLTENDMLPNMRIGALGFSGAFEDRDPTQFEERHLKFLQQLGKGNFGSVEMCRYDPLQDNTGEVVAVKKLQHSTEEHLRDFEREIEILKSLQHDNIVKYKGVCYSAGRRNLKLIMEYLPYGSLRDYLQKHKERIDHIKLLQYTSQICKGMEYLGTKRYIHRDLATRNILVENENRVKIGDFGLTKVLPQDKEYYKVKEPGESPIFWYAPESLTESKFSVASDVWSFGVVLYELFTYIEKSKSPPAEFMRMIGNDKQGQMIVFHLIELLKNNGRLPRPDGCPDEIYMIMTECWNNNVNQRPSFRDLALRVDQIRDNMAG
# Procedure, shortened: as §1
IC50 (TYK2),IC50 (JAK2),SMILES
10 to 100 nM,100 to 1000 nM,CCOc1ccc(F)c(CNc2nc(Nc3cnn(CC(N)=O)c3)ncc2Cl)c1F [Example I-267]
100 to 1000 nM,1000 to 10000 nM,CS(=O)(=O)c1ccccc1CNc1nc(Nc2cnn(CCO)c2)ncc1F [Example I-435]
≤ 10 nM,1000 to 10000 nM,C[C@@H](CO)NC(=O)Cn1cc(Nc2nccc(NCc3c(F)cccc3Cl)n2)cn1 [Example I-120]
10 to 100 nM,100 to 1000 nM,CNC(=O)Cn1cc(Nc2ncc(C)c(NCc3c(F)cccc3F)n2)cn1 [Example I-419]
10 to 100 nM,100 to 1000 nM,CS(=O)(=O)c1ccc(F)cc1CNc1nc(Nc2cnn(CC(N)=O)c2)ncc1F [Example I-489]
10 to 100 nM,> 10000 nM,CC(C)N(C)C(=O)Cn1cc(Nc2nccc(NCc3c(F)cc(F)cc3F)n2)cn1 [Example I-317]
10 to 100 nM,1000 to 10000 nM,O=C(Cn1cc(Nc2nccc(NCc3c(F)cc(F)cc3F)n2)cn1)NC1CC1 [Example I-80]
100 to 1000 nM,1000 to 10000 nM,[2H]C([2H])(O)C([2H])([2H])n1cc(Nc2ncc(Cl)c(NCc3cccc(OC)c3)n2)cn1 [Example I-235]
≤ 10 nM,1000 to 10000 nM,O=C(Cn1cc(Nc2nccc(NCc3c(F)cc(F)cc3F)n2)cn1)N[C@@H]1C[C@@H]1F [Example I-102]
10 to 100 nM,1000 to 10000 nM,CCOc1ccc(F)c(CNc2nc(Nc3cnn(CC(=O)N(C)C)c3)ncc2Cl)c1F [Example I-268]
10 to 100 nM,100 to 1000 nM,CNC(=O)Cn1cc(Nc2ncc(Cl)c(NCc3cc(S(C)(=O)=O)ccc3OC)n2)cn1 [Example I-444]
10 to 100 nM,100 to 1000 nM,COc1ccc(Cl)c(CNc2nc(Nc3cnn(C)c3)ncc2F)c1F [Example I-85]
10 to 100 nM,1000 to 10000 nM,O=C(Cn1cc(Nc2nccc(NCc3c(F)cccc3Cl)n2)cn1)N[C@@H]1C[C@@H]1F [Example I-142]
100 to 1000 nM,100 to 1000 nM,Cn1cc(Nc2ncc(Cl)c(NCc3cc(Br)ccc3F)n2)cn1 [Example I-218]
10 to 100 nM,1000 to 10000 nM,"CCNC(=O)Cn1cc(Nc2nccc(NCc3c(F)cc(F)cc3F)n2)cn1 [Example I-6, N-ethyl-2-(4-((4-((2,4,6-trifluorobenzyl)amino)pyrimidin-2-yl)amino)-1H-pyrazol-1-yl)acetamide]"
100 to 1000 nM,1000 to 10000 nM,CN(C)C(=O)Cn1cc(Nc2ncc(Cl)c(NCc3cccc(C(N)=O)c3)n2)cn1 [Example I-390]
100 to 1000 nM,100 to 1000 nM,O=C(O)Cn1cc(Nc2ncc(Cl)c(NCc3cc(F)cc(F)c3)n2)cn1 [Example I-168]
100 to 1000 nM,1000 to 10000 nM,Cc1cnc(Nc2cnn(CC(=O)N(C)C)c2)nc1NCc1ccccc1 [Example I-300]
100 to 1000 nM,100 to 1000 nM,CNC(=O)Cn1cc(Nc2ncc(Cl)c(NCc3cccc(F)c3F)n2)cn1 [Example I-208]
10 to 100 nM,1000 to 10000 nM,Cn1cc(Nc2ncc(Cl)c(NCc3c(F)cccc3F)n2)cn1 [Example I-175]

IC50 (TYK2),IC50 (JAK2),SMILES
100 to 1000 nM,100 to 1000 nM,CN(C)C(=O)Cn1cc(Nc2ncc(Cl)c(NCc3ccccc3S(C)(=O)=O)n2)cn1 [Example I-452]
≤ 10 nM,> 10000 nM,C[C@@H](CO)NC(=O)Cn1cc(Nc2nccc(NCc3c(F)cc(F)cc3F)n2)cn1 [Example I-75]
100 to 1000 nM,100 to 1000 nM,Fc1cc(F)cc(CNc2nc(Nc3cnn(CC(F)F)c3)ncc2Cl)c1 [Example I-470]
100 to 1000 nM,100 to 1000 nM,NC(=O)Cn1cc(Nc2ncc(Cl)c(NCc3cc(Br)cc(F)c3F)n2)cn1 [Example I-261]
10 to 100 nM,> 10000 nM,CC(NC(=O)Cn1cc(Nc2nccc(NCc3c(F)cc(F)cc3F)n2)cn1)C1CCCO1 (stereo not drawn) [Example I-431]
100 to 1000 nM,1000 to 10000 nM,CCOc1cccc(CNc2nc(Nc3cnn(CCO)c3)ncc2Cl)c1 [Example I-294]
10 to 100 nM,100 to 1000 nM,Cn1cc(Nc2ncc(Cl)c(NCc3c(F)ccc(F)c3F)n2)cn1 [Example I-340]
1000 to 10000 nM,1000 to 10000 nM,CS(=O)(=O)c1ccccc1CNc1nc(Nc2cnn(CC3CC3)c2)ncc1Cl [Example I-476]
1000 to 10000 nM,1000 to 10000 nM,CS(=O)(=O)CCn1cc(Nc2ncc(Cl)c(NCc3ccccc3)n2)cn1 [Example I-289]
≤ 10 nM,1000 to 10000 nM,COc1ccc(F)c(CNc2nc(Nc3cnn(CC(=O)N4CCOCC4)c3)ncc2F)c1F [Example I-24]
100 to 1000 nM,1000 to 10000 nM,CS(=O)(=O)NCc1cccc(CNc2nc(Nc3cnn(CC(=O)N4CCC[C@H]4C#N)c3)ncc2Cl)c1 [Example I-400]
100 to 1000 nM,1000 to 10000 nM,N#CCNC(=O)c1cccc(CNc2nc(Nc3cnn(CCO)c3)ncc2Cl)c1 [Example I-242]
100 to 1000 nM,100 to 1000 nM,CN(C)C(=O)Cn1cc(Nc2ncc(Cl)c(NCc3cccc(CNS(C)(=O)=O)c3)n2)cn1 [Example I-416]
100 to 1000 nM,100 to 1000 nM,N#Cc1c(F)cccc1CNc1nc(Nc2cnn(CCO)c2)ncc1Cl [Example I-287]
100 to 1000 nM,1000 to 10000 nM,OCCn1cc(Nc2ncc(F)c(NCc3ccccc3)n2)cn1 [Example I-193]
10 to 100 nM,100 to 1000 nM,Cc1cnc(Nc2cnn(CC(F)F)c2)nc1NCc1c(F)ccc(F)c1F [Example I-87]
10 to 100 nM,> 10000 nM,CC1(C)CN(C(=O)Cn2cc(Nc3nccc(NCc4c(F)cc(F)cc4F)n3)cn2)C1 [Example I-458]
≤ 10 nM,> 10000 nM,O=C(Cn1cc(Nc2nccc(NCc3c(F)cccc3Cl)n2)cn1)N1CCOCC1 [Example I-129]
100 to 1000 nM,100 to 1000 nM,N#Cc1c(F)cccc1CNc1nc(Nc2cnn(CC(N)=O)c2)ncc1Cl [Example I-286]
